{"source": "ChEMBL document CHEMBL5316263", "about": "“Structure-Based Discovery of Selective Histone Deacetylase 8 Degraders with Potent Anticancer Activity” (J Med Chem, 2023)", "key": {"A549 [1]": {"tested_on": "A549", "assay": "Induction of cell cycle arrest in human A549 cells assessed as accumulation of cells at G2/M phase at 5 uM measured after 48 hrs by propidium iodide staining based flow cytometry analysis", "format": "functional"}, "A549 [2]": {"tested_on": "A549", "assay": "Effect on CYP1B1 gene in human A549 cells at 10 uM measured after 20 hrs by RNA sequencing analysis", "format": "functional, cell-based"}, "[3]": {"biological_target": "T1, Protein cereblon/Histone deacetylase 8 (Homo sapiens) (UniProt Q9BY41+Q96SW2)", "T1 sequence (Q96SW2 whole entry, looked up, one chain of several)": "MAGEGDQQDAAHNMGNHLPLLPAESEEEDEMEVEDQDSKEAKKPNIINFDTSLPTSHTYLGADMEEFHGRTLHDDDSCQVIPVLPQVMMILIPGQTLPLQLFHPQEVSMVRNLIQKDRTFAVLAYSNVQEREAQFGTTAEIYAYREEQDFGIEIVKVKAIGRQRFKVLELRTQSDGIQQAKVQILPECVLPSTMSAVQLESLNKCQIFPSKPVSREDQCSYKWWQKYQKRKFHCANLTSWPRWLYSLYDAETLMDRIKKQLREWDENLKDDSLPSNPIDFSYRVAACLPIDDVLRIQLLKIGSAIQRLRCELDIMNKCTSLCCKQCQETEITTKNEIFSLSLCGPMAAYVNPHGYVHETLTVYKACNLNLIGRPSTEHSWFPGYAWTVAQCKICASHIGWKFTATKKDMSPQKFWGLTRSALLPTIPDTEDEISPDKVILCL", "assay": "Protac activity at CRBN/HDAC8 in human A549 cells assessed as degradation of HDAC8 at 200 nM measured after 20 hrs by Western blot analysis relative to control", "format": "cell-based"}, "A549 [4]": {"tested_on": "A549", "assay": "Inhibition of colony formation in SiRNA mediated HDAC8 knockdown human A549 cells assessed as decrease in cell proliferation at 2.5 to 10 uM measured after 7 to 10 days with media replenishment along with compound for every 3 days by crystal violet staining based analysis", "format": "functional", "conditions": "dose 2.5-10 µM, time 7-10 day"}, "HCT-116 [5]": {"tested_on": "HCT-116", "assay": "Inhibition of colony formation in SiRNA mediated HDAC8 knockdown human HCT-116 cells assessed as decrease in cell proliferation at 2.5 to 10 uM measured after 7 to 10 days with media replenishment along with compound for every 3 days by crystal violet staining based analysis", "format": "functional", "conditions": "dose 2.5-10 µM, time 7-10 day"}, "A549 [6]": {"tested_on": "A549", "assay": "Effect on DKK1 gene in human A549 cells at 10 uM measured after 20 hrs by RNA sequencing analysis", "format": "functional, cell-based"}, "A549 [7]": {"tested_on": "A549", "assay": "Effect on HDAC8 mRNA level in human A549 cells at 10 uM measured after 20 hrs by RNA sequencing analysis", "format": "functional, cell-based"}, "[8]": {"biological_target": "T2, Histone deacetylase 8 (Homo sapiens) (UniProt Q9BY41)", "T2 sequence (whole entry)": "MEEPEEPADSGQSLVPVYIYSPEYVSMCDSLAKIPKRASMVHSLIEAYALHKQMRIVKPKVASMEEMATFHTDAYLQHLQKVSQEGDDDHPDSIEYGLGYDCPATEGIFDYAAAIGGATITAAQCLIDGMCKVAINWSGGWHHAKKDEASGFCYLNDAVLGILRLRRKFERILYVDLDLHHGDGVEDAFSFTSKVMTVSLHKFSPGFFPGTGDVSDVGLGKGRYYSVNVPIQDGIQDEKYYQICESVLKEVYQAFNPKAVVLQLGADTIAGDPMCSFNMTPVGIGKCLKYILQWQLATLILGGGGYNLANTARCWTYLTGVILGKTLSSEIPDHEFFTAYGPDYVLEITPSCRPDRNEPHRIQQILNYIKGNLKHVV", "assay": "Induction of degradation in HDAC8 in human A549 cells incubated for 20 hrs by proteomic analysis", "format": "cell-based"}, "A549 [9]": {"tested_on": "A549", "assay": "Downregulation of ABHD6 in human A549 cells measured after 20 hrs by proteomic analysis", "format": "functional, cell-based"}, "A549 [10]": {"tested_on": "A549", "assay": "Induction of apoptosis in human A549 cells incubated for 72 hrs by annexin V-FITC staining based flow cytometry", "format": "functional, cell-based", "conditions": "dose 1.25-20 µM"}, "A549 [11]": {"tested_on": "A549", "assay": "Induction of apoptosis in human A549 cells assessed as viable cells at 2.5 uM incubated for 72 hrs by annexin V-FITC staining based flow cytometry (reference value: 99.9%)", "format": "functional", "conditions": "read-out: Activity"}, "A549 [12]": {"tested_on": "A549", "assay": "Induction of apoptosis in human A549 cells assessed as viable cells at 5 uM incubated for 72 hrs by annexin V-FITC staining based flow cytometry (reference value: 99.9%)", "format": "functional", "conditions": "read-out: Activity"}, "A549 [13]": {"tested_on": "A549", "assay": "Induction of apoptosis in human A549 cells assessed as early apoptotic cells at 5 uM incubated for 72 hrs by annexin V-FITC staining based flow cytometry (reference value: 0.099%)", "format": "functional"}, "A549 [14]": {"tested_on": "A549", "assay": "Induction of apoptosis in human A549 cells assessed as early apoptotic cells at 10 uM incubated for 72 hrs by annexin V-FITC staining based flow cytometry (reference value: 0.099%)", "format": "functional"}, "A549 [15]": {"tested_on": "A549", "assay": "Induction of apoptosis in human A549 cells assessed as necrotic cells at 1.25 uM incubated for 72 hrs by annexin V-FITC staining based flow cytometry relative to control", "format": "functional"}, "A549 [16]": {"tested_on": "A549", "assay": "Induction of apoptosis in human A549 cells assessed as necrotic cells at 10 uM incubated for 72 hrs by annexin V-FITC staining based flow cytometry relative to control", "format": "functional"}, "A549 [17]": {"tested_on": "A549", "assay": "Induction of apoptosis in human A549 cells assessed as upregulation of cleaved PARP level measured after 48 hrs by Western blot analysis", "format": "functional, cell-based", "conditions": "dose 1.25-20 µM"}, "A549 [18]": {"tested_on": "A549", "assay": "Induction of apoptosis in human A549 cells assessed as necrotic cells at 5 uM by annexin V-FITC staining based flow cytometry (reference value: 0%)", "format": "functional"}, "A549 [19]": {"tested_on": "A549", "assay": "Induction of apoptosis in human A549 cells assessed as late apoptotic cells at 5 uM incubated with compound followed by irradiation by annexin V-FITC staining based flow cytometry (reference value: 3.07%)", "format": "functional"}, "[20]": {"biological_target": "Protein cereblon/Histone deacetylase 1 (Homo sapiens) (UniProt Q13547+Q96SW2)", "sequence (Q13547 whole entry, looked up)": "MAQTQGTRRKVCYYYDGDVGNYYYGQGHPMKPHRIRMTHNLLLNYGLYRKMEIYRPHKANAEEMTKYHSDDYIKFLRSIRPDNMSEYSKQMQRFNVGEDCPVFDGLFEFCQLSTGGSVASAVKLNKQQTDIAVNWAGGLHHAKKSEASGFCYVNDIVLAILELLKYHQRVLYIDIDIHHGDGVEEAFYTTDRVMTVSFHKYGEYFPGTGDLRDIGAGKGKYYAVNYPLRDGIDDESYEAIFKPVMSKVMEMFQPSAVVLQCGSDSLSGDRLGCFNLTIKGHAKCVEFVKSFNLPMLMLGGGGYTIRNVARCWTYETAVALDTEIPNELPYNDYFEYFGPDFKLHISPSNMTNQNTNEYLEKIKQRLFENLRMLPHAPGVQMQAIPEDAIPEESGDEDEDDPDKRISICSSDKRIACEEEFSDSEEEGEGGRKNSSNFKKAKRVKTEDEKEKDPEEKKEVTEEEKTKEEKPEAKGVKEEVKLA", "sequence (Q96SW2 whole entry, looked up)": "as the sequence (Q96SW2 whole entry, looked up, one chain of several) above", "assay": "Protac activity at CRBN/HDAC1 in human A549 cells assessed as reduction in HDAC1 protein level at 0.1 to 10 uM by Western blot analysis", "format": "cell-based", "conditions": "dose 0.1-10 µM"}, "[21]": {"biological_target": "Protein cereblon/NAD-dependent protein deacetylase sirtuin-7 (Homo sapiens) (UniProt Q9NRC8+Q96SW2)", "sequence (Q96SW2 whole entry, looked up)": "as the sequence (Q96SW2 whole entry, looked up, one chain of several) above", "sequence (Q9NRC8 whole entry, looked up)": "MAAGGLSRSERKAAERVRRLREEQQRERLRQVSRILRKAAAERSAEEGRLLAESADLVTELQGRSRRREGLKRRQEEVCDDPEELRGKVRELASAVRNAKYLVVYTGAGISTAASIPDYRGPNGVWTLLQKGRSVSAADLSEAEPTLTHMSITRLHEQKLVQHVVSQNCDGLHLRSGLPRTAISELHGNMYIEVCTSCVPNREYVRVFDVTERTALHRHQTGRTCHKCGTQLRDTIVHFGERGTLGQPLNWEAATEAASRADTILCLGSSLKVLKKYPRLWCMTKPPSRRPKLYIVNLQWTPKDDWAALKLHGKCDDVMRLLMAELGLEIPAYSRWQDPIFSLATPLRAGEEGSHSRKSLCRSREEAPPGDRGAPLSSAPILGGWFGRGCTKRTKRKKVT", "assay": "Protac activity at CRBN/Sirt7 in human A549 cells assessed as reduction in Sirt7 protein level at 0.1 to 10 uM by Western blot analysis", "format": "cell-based", "conditions": "dose 0.1-10 µM"}, "[22]": {"biological_target": "T1, Protein cereblon/Histone deacetylase 8 (Homo sapiens)", "assay": "Protac activity at CRBN/HDAC8 in human HCT-116 cells assessed as reduction in HDAC8 protein level at 0.1 to 10 uM by Western blot analysis", "format": "cell-based", "conditions": "dose 0.1-10 µM"}, "[23]": {"biological_target": "T1, Protein cereblon/Histone deacetylase 8 (Homo sapiens)", "assay": "Protac activity at CRBN/HDAC8 in human HeLa cells assessed as reduction in HDAC8 protein level at 0.1 to 10 uM by Western blot analysis", "format": "cell-based", "conditions": "dose 0.1-10 µM"}, "HCT-116 [24]": {"tested_on": "HCT-116", "assay": "Inhibition of HDAC8 foci formation in human HCT-116 cells measured after 20 hrs by DAPI staining based immunofluorescence assay", "format": "functional, cell-based", "conditions": "dose 0.5-8 µM"}, "[25]": {"biological_target": "T1, Protein cereblon/Histone deacetylase 8 (Homo sapiens)", "assay": "Protac activity at CRBN/HDAC8 in human A549 cells assessed as reduction in HDAC8 protein levels at 10 uM measured after 16 hrs by Western blot analysis", "format": "cell-based"}, "[26]": {"biological_target": "T1, Protein cereblon/Histone deacetylase 8 (Homo sapiens)", "assay": "Protac activity at CRBN/HDAC8 in human A549 cells assessed as reduction in HDAC8 protein levels at 10 uM measured after 18 hrs by Western blot analysis relative to control", "format": "cell-based", "design": "scale not given: the % may be the effect or the level left"}, "[27]": {"biological_target": "T1, Protein cereblon/Histone deacetylase 8 (Homo sapiens)", "assay": "Protac activity at CRBN/HDAC8 in human Jurkat cells at 0.1 to 10 uM measured after 20 hrs by Western blot analysis", "format": "cell-based", "conditions": "dose 0.1-10 µM"}, "A549 [28]": {"tested_on": "A549", "assay": "Inhibition of DNA damage repair in human A549 cells assessed as reduction in Ku70 protein level at 5 uM incubated for 24 hrs by immunofluorescence staining based analysis", "format": "functional, cell-based"}, "A549 [29]": {"tested_on": "A549", "assay": "Antitumor activity against human A549 cells xenografted in NOD/SCID mouse at 5 mg/kg, ip administered every 5 days measured at day 30", "format": "functional, organism-based", "conditions": "time 30.0 day"}, "A549 [30]": {"tested_on": "A549", "assay": "Antitumor activity against human A549 cells xenografted in NOD/SCID mouse at 5 mg/kg, ip administered every 5 days measured at day 30 followed by irradiation", "format": "functional, organism-based", "conditions": "time 30.0 day"}, "A549 [31]": {"tested_on": "A549", "assay": "Antitumor activity against human A549 cells xenografted in NOD/SCID mouse assessed as decrease in HDAC8 expression at 5 mg/kg, ip administered every 5 days measured at day 30 by […] analysis", "format": "functional, organism-based", "conditions": "time 30.0 day"}}, "note": "Activity calls are given as the source filed them. The rule behind the calls is not given here."}
{"smiles": "O=C1CCC(N2C(=O)c3cccc(NCc4cn(CCOCCOc5ccc(Cn6ccc7ccc(C(=O)NO)cc76)cc5)nn4)c3C2=O)C(=O)N1", "note": "(stereo unspecified)", "values": [{"measurement": "Activity", "setting": "A549 [1]", "value": "Active"}, {"measurement": "Activity", "setting": "A549 [2]", "value": "Active"}, {"measurement": "Activity", "setting": "[3]", "value": 39.7, "unit": "%"}, {"measurement": "inhibition", "setting": "A549 [4]", "value": "Active"}, {"measurement": "inhibition", "setting": "HCT-116 [5]", "value": "Active"}, {"measurement": "Activity", "setting": "A549 [6]", "value": "Active"}, {"measurement": "Activity", "setting": "A549 [7]", "value": "inactive"}, {"measurement": "Activity", "setting": "[8]", "value": "Active"}, {"measurement": "Activity", "setting": "A549 [9]", "value": "Active"}, {"measurement": "Activity", "setting": "A549 [10]", "value": "Dose-Dependent Effect"}, {"measurement": "viability at 2.5 µM", "setting": "A549 [11]", "value": 61.7, "unit": "%"}, {"measurement": "viability at 5 µM", "setting": "A549 [12]", "value": 54.9, "unit": "%"}, {"measurement": "Activity", "setting": "A549 [13]", "value": 21.6, "unit": "%"}, {"measurement": "Activity", "setting": "A549 [14]", "value": 23.5, "unit": "%"}, {"measurement": "Activity", "setting": "A549 [15]", "value": 0.1, "unit": "%"}, {"measurement": "Activity", "setting": "A549 [16]", "value": 1.52, "unit": "%"}, {"measurement": "Activity", "setting": "A549 [17]", "value": "Dose-Dependent Effect"}, {"measurement": "Activity", "setting": "A549 [18]", "value": 2.37, "unit": "%"}, {"measurement": "Activity", "setting": "A549 [19]", "value": 0.3, "unit": "%"}, {"measurement": "Activity", "setting": "[20]", "value": "inactive"}, {"measurement": "Activity", "setting": "[21]", "value": "inactive"}, {"measurement": "Activity", "setting": "[22]", "value": "Active"}, {"measurement": "Activity", "setting": "[23]", "value": "Active"}, {"measurement": "inhibition", "setting": "HCT-116 [24]", "value": "Dose-Dependent Effect"}, {"measurement": "Activity", "setting": "[25]", "value": "Active"}, {"measurement": "Activity", "setting": "[26]", "value": 100, "unit": "%"}, {"measurement": "Activity", "setting": "[27]", "value": "inactive"}, {"measurement": "inhibition", "setting": "A549 [28]", "value": "Active"}, {"measurement": "Activity", "setting": "A549 [29]", "value": "Active"}, {"measurement": "Activity", "setting": "A549 [30]", "value": "Active"}, {"measurement": "Activity", "setting": "A549 [31]", "value": "Active"}]}
